Measured values published in US20250215467A1, “L-THREONINE TRANSALDOLASES AND USES THEREOF” (University of Delaware, priority 2022, published 2025).

B1: StTTA: TTA, SEQ ID NO: 35, Streptomyces (multi-species), first 36 N-terminal amino acids removed (protein)
chain: GVWAGDRVAQVLERLASDFVLDNTYREQHLSLTASENYPSKLVRMLGAGLQGGFYEFAPPYPAEAGEWAFPDSGANASLVGKLTGIGRQLFEAATFDWRPNGGSVAEQAVLLGTCGRGDGFVHFAHKDGGHFALESLAGAAGVNTYHLPMVDRTLLIDVDRLATLCAEHPEIKLVILDQSFKLRWQPLAQIRAALPEGVFLAYDASHDGALIAGGVLPQPTLLGADAVHGNTHKTIAGPQKAYIAFRDAEHPKLRAVSDWVCPQMQSNSHAELIAPMYVALSEVALYGHAYARQILANAQALAHGLHEEGVRVSGESFGFTETHQVHVVTGSAADALRLSLGELAQAGIRTTNIEVPGANGLHGLRLGVQAMTRRGLREPQMREVARLVAKVVLRRAEPAAVRAEVADLLQHHPLDQLAYSFDSYVDSPAAARLLGEVFR
modifications: Streptomyces (multi-species)
B2: SNTTA: putative TTA, SEQ ID NO: 38, Streptomyces sp. NRRL 30471 (protein)
chain: MTSSDDCAASRTAPVAGRAELLALLGEIEKEQRINEAAVNLVPSENRISPWAGAPLRTDFYNRYFFNDSLDPQGWQFRGGEGIGRLEKELALPALRRLGRADHVNIRPVSGMSAMLVVLLGLGGEPGDGVVCVDAETGGHYATGRQIAMLGRRPLPVRVVAGRVDLDALRTALTSCHVPLVYLDLQNSLWELDVAGVAEVIARTSPRTVLHVDCSHTLGLILGGSHKNPLDLGADTTGGSTHKTFPGPQKGVLFTRDENLSRKIRDAQFFTISSHHFAETLALALAAAEFEHFGAAYSRQVLINARAFAHRLRERGFGVVEGGPQLTDTHQVWVRLPLEESADAFSAQLASLGIRVNVQTELPDIPEPALRLGVSEITLNGGREPAMETLAEIFALVRAGEATKAVDLFQVLPHEMGEPYFFTGLPQEAGLFHG
modifications: Streptomyces sp. NRRL 30471
B3: DbTTA: putative TTA, SEQ ID NO: 40, Deltaproteobacteria bacterium (protein, listed as Deltaproteobacteria bacterium)
chain: LTNNRELMDRIGYNLSQGLVSSQHTASLVALFIALHEARLTGKAFAKQVVENARTLASRLAALGVPVLARSDGQFTDNHHFFINLTGVASAPHQMERLLRAHLVVQRGMPFRNVDALRVGVQEVTRRGYGPGEMAQLAEWIASIVIGGADPEVVAPAVQAMAKRFDTIYYTGETVDGKLDLPEIAAPSAKGRWVDYRHLGNDFAMDDTEFSEIRALGAAAGAFPNQTDSTGNVSLRSGARVFVSSSGSYIKHLADGQVVELDAVDPSGELIDYHGAALPSSESLMHFLVYQNVPAGAVVHTHYLLTNQEAADFDVAVIAPQEYASIALARAVAEASKRSRIVYIQKHGLVFWGTDTADCLSQVHNFIHNRPNRRAAEAVYAS
B4: TmTTA: putative TTA, SEQ ID NO: 36, Thermocladium modestius (protein, listed as Thermocladium modestius)
chain: MREEEAIAALSKLRAIMDRHNNWRRRETINLIPSENVMSPLAEYFYLNDMMGRYAEGTIGKRYYQGVSLVDEAEQMLVDLMSSLFSSRFTDVRPISGTVANMAVYHSVAGLGEKIASLPTAAGGHISHNETGAPKAFGLRVSYLPWSQENFNVDVDAARRLIAEERPKLVLLGASLYLFPHPIKELADAAHEVGAVLMHDSAHVLGLIAGHQFPNPLELGADIMTSSTHKTFPGPQGGVIFTTREDLFKEIQRSVFPVMTSNYHLHRYASTIVTAIEMSTYGDEYAATVRSNAKALAEQLHANGLPVVAEEHGFTATHQVAMDVSKFGGGGPIAKALEDANIIVNKNMLPWDKSPVKPSGIRMGVQEMTRMGMGKGEMAAVAELIAKVVIKGVEPSKVKPEVVELRRGFTKVRYGFDLSTLGLNCPCLPLL
B5: NoTTA: putative TTA, SEQ ID NO: 39, Nocardia otitidiscaviarum (protein, listed as Nocardia otitidiscaviarum)
chain: MNTFDILEQLARYEVGTSRRLHLIASENPLDSDTRVPYMLAGTLARYAFGEPGQPNWAWPGRETLIDLEADTAAALGALLGADHVNLRPTSGLSAMTVALSALAEHAGDRATVLSLAESDGGHGSTGFMARRFGLDWQRMPADPRTGVVDLDALARQARSARGPLVLYLDAFMARFPFDLTGIRGAVGDSALIHYDGSHPLGLIAGGRFQNPLAEGADSLGGSVHKTWPGPVGKGIIATNDSALASRFDTHAAGWISHHHPADLAALALSTAWMEQHAGDYATAVIANAVQLADELADGGLSICADDRGATASHQVWVDIAPICPAPVAAQRLYDAGIVVNAIAIPGLAEPGLRLGVQELTRWGLDRDGMTVLTWVLTQLLVHNAATAVVAPQMEALRTGLTLPEDRHGLEGFLRACDPQEVSVA

Tests used:
[1] = tested on: ObiH; assay: TTA-ADH coupled assay, ObiH screened on aromatic aldehyde substrates; type: biochemical, Pseudomonas fluorescens; conditions: 0.25-1 mM aldehyde, 100 mM L-Thr, 0.25 μM purified TTA, 30° C.
Procedure: (§1) High-throughput screening of purified TTAs was performed with a TTA-ADH coupled assay using purified TTA and commercially available alcohol dehydrogenase from S. cerevisiae purchased from MilliporeSigma. Aldehyde stocks were prepared in 50-100 mM solutions in DMSO or acetonitrile. Reaction mixtures were prepared in a 96-well plate with 100 μL of 100 mM phosphate buffer pH 7.5, 0.5 mM NADH, 0.4 mM PLP, 15 mM MgCl2, and 100 mM L-Thr with the addition of 0.25 mM to 1 mM aldehyde depending on the background absorbance at 340 nm (Table 4), 10 U ScADH, and 0.25 μM purified TTA unless otherwise specified. Reactions were initiated with the addition of enzyme. […] The following controls were included for every assay: reaction mixture without aldehyde, without TTA, and without enzyme (TTA or ADH). Rates were calculated by identifying the linear region at the beginning of the kinetic run and converting the depletion in absorbance to the depletion of mM NADH using an NADH standard curve.
To expand our understanding of the TTA enzyme class, we wanted a high-throughput method for rapid screening of multiple enzymes and candidate aldehyde substrates. We began by analyzing a previously reported coupled enzyme assay (FIG. 2a) based on the addition of alcohol dehydrogenase (ADH), which consumes NADH to reduce the co-product acetaldehyde in a manner that can be monitored at 340 nm. Unfortunately, this coupled assay for TTA activity suffers from false positives and confounding variables which we sought to address. […] Second, the characterized TTAs are known to catalyze the decomposition of L-Thr in the absence of an aldehyde substrate, which is an undesired reaction that also generates an acetaldehyde co-product. Another limitation of the TTA-ADH coupled assay is that many of the aromatic aldehyde candidate substrates absorb at the same measurement wavelength (Table 4). Thus, we minimized the impact of the false positives, spectral overlap, and other confounding variables by tuning enzyme and aldehyde concentrations and monitoring the undesired reactions with two controls: (1) lacking aldehyde substrate (“L-Thr”) and (2) lacking TTA (“no TTA”) where only the ADH and substrate are present. Then, we validated the TTA-ADH coupled assay by performing HPLC analysis, using the chemically synthesized β-OH-nsAA standard for the assumed product from 3, over a time course where we observed that the addition of the ScADH improves reaction rates three-fold. As previously reported by others, we were also able to improve β-OH-nsAAs yields when using the ScADH coupled to a co-factor regeneration system. As the last step of verification, we screened the TTA-ADH coupled assay with ObiH before and after photo-treatment, we observed no differences in reaction rate and continued to assay the TTAs without photo-treatment.
Upon assay validation, we hypothesized that we could rapidly probe the activity of ObiH on diverse aldehydes to expand the potential chemical handles of β-OH-nsAAs. We successfully screened ObiH against 16 unique substrates in a single experiment (FIGS. 2b,c). […] Our screen included nine substrates not previously tested with ObiH to our knowledge; activity on seven of these substrates was confirmed with new peak formation via HPLC or LC-MS (FIGS. 3-14). The new substrates include aldehydes that contain amines, conjugatable handles, or larger hydrophobic groups to improve the chemical diversification of β-OH-nsAA products. Our result supported the known general trend that aldehydes containing electron-withdrawing ring substituents are the preferred substrates of ObiH. As expected, the amine-aldehydes were very poor substrates for ObiH, which we hypothesize is because of the strong electron-donating potential of amines. Additionally, one amine-containing substrate (5) absorbed at 340 nm, so it was only tested at low concentrations of 0.25 mM aldehyde (Table 4). […]

[2] = In vitro assay over 20 h with HPLC analysis (amino acid substrate specificity, diastereomeric excess); type: biochemical
Procedure: Metabolites of interest were quantified via high-performance liquid chromatography (HPLC) using an Agilent 1260 Infinity model equipped with a Zorbax Eclipse Plus-C18 column. To quantify aldehyde and β-OH-nsAAs, an initial mobile phase of solvent A/B=95/5 was used (solvent A, water+0.1% TFA; solvent B, acetonitrile+0.1% TFA) and maintained for 5 min. A gradient elution was performed (A/B) as follows: gradient from 95/5 to 50/50 for 5-12 min, gradient from 50/50 to 0/100 for 12-13 min, and gradient from 0/100 to 95/5 for 13-14 min. A flow rate of 1 mL min-1 was maintained, and absorption was monitored at 210, 250 and 280 nm.
We performed an in vitro assay over 20 h using 3 as the aldehyde substrate and either L-Thr, Glycine (Gly), or L-Serine (L-Ser) as the candidate amino acid. Since the TTA-ADH coupled assay is specific to L-Thr, we analyzed TTA activity via HPLC with a chemically synthesized β-OH-nsAA standard for the assumed product from 3.

[3] = TTA-ADH coupled assay, substrate scope of TTAs on aromatic aldehydes; type: biochemical; conditions: for TTA activity with L-Thr and aldehydes 2, 10, 14: TTA-ADH coupled assay
Procedure: as §1
We specifically selected substrates with ring substituents with different electron withdrawing properties (1, 3, 6, 7, 8), substituent size (12), and aldehyde chain length (15) to compare the activity of the putative TTAs to ObiH. We were also encouraged by the activity of PbTTA and KaTTA on vanillin and protocatechualdehyde which are substrates that would form products like commercially available therapeutic, Droxidopa (FIG. 18).
To explore the possibility that DbTTA and TmTTA are TTAs active on other related aldehydes, we sought to examine their activity with L-Thr and aldehyde substrates with different ring substituent position (2), bulkier, hydrophobic chemistry (10), and aldehyde chain length (14) using the TTA-ADH coupled assay.

Row | Molecule | activity of ObiH on aldehyde substrate (initial rate, TTA-ADH coupled assay) [1] | β-OH-nsAA product formation from 3 and L-Thr [2] | other results
1 | O=Cc1ccccc1[N+](=O)[O-] [Aldehyde 3, 2-nitro-benzaldehyde] | validated the activity |  | 
2 | O=Cc1ccc(C=O)cc1 [Aldehyde 7, terephthalaldehyde] | activity |  | 
3 | COc1ccc(C=O)cc1 [Aldehyde 9, 4-methoxybenzaldehyde] | some activity |  | 
4 | O=Cc1ccc(-c2ccccc2)cc1 [Aldehyde 10, 4-biphenylcarboxaldehyde] | some activity |  | 
5 | O=Cc1ccc2ccccc2c1 [Aldehyde 12, 2-napthalaldehyde] | some activity |  | 
6 | O=Cc1ccc(B(O)O)cc1 [Aldehyde 13, 4-boronobenzaldehyde] | activity |  | 
7 | O=CCc1ccc([N+](=O)[O-])cc1 [Aldehyde 15, 4-nitro-phenylacetaldehyde] | validated the activity |  | 
8 | B1 |  | active | 
9 | B2 |  |  | TTA activity on aromatic aldehydes ([3]; purified with SUMO tag): no TTA activity
10 | B3 |  | no product | TTA activity with L-Thr and aldehydes 2, 10, 14 [3]: Neither of these proteins appeared to have any TTA activity
11 | B4 |  | no product | TTA activity with L-Thr and aldehydes 2, 10, 14 [3]: Neither of these proteins appeared to have any TTA activity
12 | B5 |  | no product | 
